| SMILES | melting point |
| --- | --- |
| Cc1ccc2c(c1)N(CC(=O)NC(C)(C)C)C(=O)C(Br)CC2CC1CCCCC1 (stereo not given) | 166 to 170 °C |
| c1cnc(NCc2ccc3c(c2)-c2[nH]nc(-c4ccsc4)c2C3)nc1 | 259 to 260 °C |
| CSCC[C@@H]1C(=O)N(C)[C@H]([C@H](C)c2cccc3ccccc23)C(=O)N1C | 88 to 90 °C |
| O=C(CCCCCOc1ccc(OCc2ccccc2)cc1)C(F)(F)F | 59 to 60 °C |
| Cn1nnnc1C(C=O)=C(c1ccc(F)cc1)c1ccc(F)cc1 | 135 to 137 °C |
| NC(=O)c1cccc2nnsc12 | 270 to 272 °C |
| CNC(=NS(C)(=O)=O)NCCCCc1csc(NC(N)=NCCO)n1 | 128 to 132 °C |
| O=C(O)Cn1cc(Cc2nc3cc(C(F)(F)F)ccc3s2)c2ccc(Br)cc21 | 265 to 267 °C |
| CCn1c(=O)c2[nH]c(-c3ccc(S(=O)(=O)O)cc3)nc2n(CC)c1=O | > 360 °C |
| CC(C)(O)c1ccc(-c2cnc3c(n2)N(CCN2CCOCC2)CC(=O)N3)cn1 | 239 to 241 °C |
| N#CC1=C(C2CCNCC2)Nc2n[nH]cc2C1c1ccccc1Cl (stereo not given) | 221 °C |
| CCNc1nc(C)c(-c2ccnc(Nc3cc(OC)cc(OC)c3)n2)s1 | 235 to 237 °C |
| Cc1ccc(S(N)(=O)=O)cc1C(C)O (stereo not given) | 155 to 158 °C |
| O=C(O)c1ccc(=O)n(Cc2ccc(-c3ccccc3)cc2)c1 | 245 to 250 °C |
| O=C1c2ccc(Br)cc2OCC1n1ccnc1 (stereo not given) | 201 to 203 °C |
| Cc1ccccc1-c1cnc2c(C(F)(F)F)cccc2c1-c1cccc(N)c1 | 148 to 151 °C |
| CCN(CC)C(C(C(=O)C(C)(C)C)n1cncn1)C(Cl)(Cl)Cl (stereo not given) | 103 to 110 °C |
| CCCCS(=O)(=O)N1CCC(c2ccc(O)cc2O)CC1 | 182 to 183 °C |
| O=C1c2ccccc2C(=O)N1CCCOc1cccc2[nH]c3ccccc3c12 | 171 to 172 °C |
| c1cc2[nH]ncc2cc1OC1CCOCC1 | 151 to 153 °C |
| CCOC(=O)c1c(N2CCN(C)CC2)c2cc(Cl)ccc2n(C)c1=O | 163 to 165 °C |
| CCOC(=O)c1cc2ccc(Oc3ccc(N)cc3)cc2oc1=O | 136 to 138 °C |
| COc1ccc(C(=O)c2cc3c(ccc4ccccc43)oc2=O)cc1 | 158 to 160 °C |
| CC(=O)c1ccc(NC(=O)C(N)c2ccc3c(c2)C(C)(C)CCC3(C)C)cc1 (stereo not given) | 138 to 139 °C |
| COc1ccc(-c2cc(C)nn2-c2ccc([N+](=O)[O-])cc2)cc1 | 155 to 158 °C |

| SMILES | melting point |
| --- | --- |
| Cc1cc(N)ccc1C(O)c1ccccn1 (stereo not given) | 102 to 104 °C |
| CC(C)n1nc(-c2cc(-c3ncnn3C)c(N)nc2-c2ccccc2)ccc1=O | 253 to 254 °C |
| O=c1ccc2cc(C(O)(C(F)(F)F)C(F)(F)F)cc3c2n1CCC3 | 295 to 296 °C |
| Cc1nn(-c2ccccn2)cc1COc1ccc(COc2ncccc2CC(=O)O)cc1 | 150 to 151 °C |
| COC(=O)[C@H]1CC[C@H](NC(=O)c2cc(-c3ccc(C#N)cc3)nnc2N2CCOCC2)CC1 | 269 to 271 °C |
| CCCc1c(OC(=S)N(C)C)ccc2c(C)c(CC(=O)OC)c(=O)oc12 | 172 to 173 °C |
| CCn1nnc(NC(=O)C2c3ccccc3Cc3ccccc32)n1 | 206 to 207 °C |
| O=C(c1ccc(Oc2ccccc2)cc1)c1cccc(C(=O)c2ccc(Oc3ccccc3)cc2)c1 | 117 to 119 °C |
| Cc1c(C)c2c(c(C)c1N)CC(C)(CN1CCN(C(=O)CCC(c3ccccc3)c3ccccc3)CC1)O2 (stereo not given) | 135 to 138 °C |
| O=C(NCc1cccc(Cl)c1)c1sc2ccc(Cl)cc2c1O | 184 to 186 °C |
| CCN(CC)Cc1ccc2nc(-c3ccccc3)cc(OCc3ccccc3)c2c1 | 108 to 109 °C |
| CCCCc1nc2cc(C(=O)O)ccc2n1Cc1ccc(-c2ccccc2-c2nnn[nH]2)cc1 | 180 to 182 °C |
| CC(CCCC(C)(C)O)C1CCC2C3C=CC4=CC(=O)C=CC4(C)C3CCC12C (stereo not given) | 180 to 182 °C |
| O[C@H](COc1cccc2[nH]ccc12)CN1CCC(c2c[nH]c3ccc(F)cc23)CC1 | 94 to 97 °C |
| CN1CCC2(CC1)Oc1ccccc1Cn1cccc12 | 100 to 101 °C |
| c1ccc2sc(N3CCNCC3)nc2c1 | 63 to 64 °C |
| CN(C=C(C#N)C#N)c1ccc(Cl)cn1 | 136 to 137 °C |
| COc1ccc(C2(C)C=C(Cl)N=CN2)cc1 (stereo not given) | 65 to 67 °C |
| Cc1cc2c(cc1C(=O)O)CCC(CCN1CCCC1)=C2 | 258 to 259 °C |
| CCC(=O)Nc1nc(C)c(C(=O)NCc2ccccc2)s1 | 175 to 176 °C |
| O=C1c2ccccc2C(=O)N1CCCOc1cccc(CO)c1 | 78 to 80 °C |
| CN(C)c1ccc(-c2cc(=O)c3ccc(O)c(O)c3o2)cc1 | 242 to 245 °C |
| CCOC(=O)c1cnn2c(-c3ccncc3)ccnc12 | 209 to 210 °C |
| COC(=O)c1ccccc1NC(=O)c1cnc(S(C)(=O)=O)nc1 | 187 to 189 °C |
| CC(C)Cn1c(-c2c(F)cccc2F)c(Br)nc(Br)c1=O | 125 to 126 °C |

From a melting point compilation (Tetko et al.; mined from patent text by program, amines drawn as free bases though some values may be those of a salt)
